Values of other authors as cited in patent EP0279778B1, “New strain belonging to genus Thermus, new beta-galactosidase and process for producing same” (Research Development Corporation of Japan, priority 1987, dated 1988).

Key:
[1] = tested on: Thermus strain 4-1A β-galactosidase (Enzyme of Precedent 3); conditions: 56mM
[2] = tested on: Bacillus stearothermophilus β-galactosidase (Enzyme of Precedent 5); conditions: 10mM

SMILES | Inhibition by reaction product [1] [%] | Inhibition by reaction product [2] [%]
OC[C@H]1OC(O)[C@H](O)[C@@H](O)[C@H]1O (stereo partly shown) [galactose] | 52 | 71
OC[C@H]1OC(O)[C@H](O)[C@@H](O)[C@@H]1O (stereo partly shown) [glucose] | 63 | 20
